In patent US12521439B2, “Methods and materials for modulating Nrf2 pathway” (The General Hospital Corporation, priority 2019, dated 2026):

Tests used:
Keap1 = Keap1 (Homo sapiens, UniProt Q14145); assay: Differential alkylation mass spectrometry, Keap1; type: binding
MDA-MB231 cells = assay: Cell viability (CellTiter-Glo), MDA-MB231; type: cell-based, human; settings: co-treatment MLN4924 (1 μM), three days
Experimental: (§1) Cell culture: MDA-MB-231 and U87 (U87-MG) cells were obtained from the American Type Culture Collection (ATCC). 293T human embryonic kidney fibroblasts were provided by Dr. Xandra Breakefield (Massachusetts General Hospital). All three cell lines were grown in Dulbecco's modified Eagle medium supplemented with 10% fetal bovine serum (Gemini Bio-products), 100 U penicillin, and 0.1 mg/mL streptomycin (Sigma). All cells were maintained at 37° C. in a humidified 5% CO2 incubator. GSCs were obtained from tumor tissues of GBM patients following surgical resection, under approval from the corresponding Institutional Review Board. These cells have been previously characterized (ref. 37-39) and were maintained in culture as neurospheres in Neurobasal medium (Gibco) supplemented with heparin (2 μg/mL; Sigma) and recombinant EGF (20 ng/mL) and bFGF-2 (10 ng/mL; Peprotech). Human Astrocytes were obtained from ScienCell and cultured in Astrocytes Medium (ScienCell)
(§2) Cell viability: Cells were plated in 96-well plates and treated with the corresponding compounds. Cell viability was measured by adding 25 μl/well of CellTiter-Glo (Promega) followed by 10 minutes incubation and transfer to a white 96-well plate. Bioluminescence was quantified using Synergy HTX multimode reader (Biotek).

ARE (Nrf2 pathway) = assay: ARE-Gluc luciferase reporter (normalized to SV40-Vluc); type: cell-based, human
Description: DNA expression constructs: ARE reporter was designed and generated based on our previously published reporter for monitoring of the transcription factor Nuclear Factor Kappa B (NFkB). NFkB TRE elements were removed and replaced with four copies of the ARE enhancer sequence. This reporter consists of a CSCW lentivirus vector in which we have introduced two copies of the 1.2 kb chicken beta-globin (HS4) insulator elements, a TATA box acting as a minimal promoter upstream of the secreted Gaussia luciferase (Gluc). pcDNA3-HA2-Keap1 (Addgene plasmid #21556) and pcDNA3-HA2-Keap1 delta BTB (Addgene plasmid #21593) were a gift from Yue Xiong^2. pHAGE DN Cullin 3 (DN-CUL3) was a gift from Stephen Elledge (Addgene plasmid #41913). Constructs expressing constitutively active Gluc, Firefly luciferase (Fluc) and Vargula luciferase (Vluc) were previously describe. MISSION shRNA Bacterial Glycerol Stocks for Keap1 as well as a non-target shRNA were obtained from Sigma. Transfection of plasmid DNA was performed using Lipofectamine 2000 (Invitrogen) as per manufacturer's guidelines. Lentivirus packaging and titration was performed in 293T cells by the MGH viral vector core facility following standard protocols. Keap1 mutant C151S plasmid was kindly provided by Dr. Wooyoung Hur.
Luciferase assay: Coelenterazine (20 μM; Nanolight), The Gluc substrate was added to a 25 μL aliquot of conditioned medium and photon counts were measured using a luminometer. Similarly, the secreted Vluc activity was measured by adding its substrate vargulin (5 ng/mL; Nanolight). Cells stably expressing Gluc under the ARE enhancer sequence and Vluc under the constitutively active SV40 minimal promoter were used to determine the ARE reporter activity. The normalized Gluc/Vluc ratio was used as a marker for ARE activation.

U87 glioma cells = assay: Cell viability (CellTiter-Glo), U87; type: cell-based, human; settings: shKeap1 vs shCtr1, four days
Experimental: as §1, §2

[1] = tested on: tumour-infiltrating CD4+ and CD8+ T cells; assay: Ex vivo stimulation of tumour-infiltrating T cells (anti-CD3/anti-CD28); type: cell-based, mice; settings: cells from OBT-treated tumours, cultured 3 days
Description: To confirm reversion of T cell exhaustion and activation of cytotoxic T cells by OBT, tumour-infiltrating CD4+ and CD8+ T cells (n=3) were isolated and cultured in the presence of anti-CD3 and anti-CD28 antibodies to mimic an antigenic stimulation.

Keap1, sequence (Q14145 whole entry, species assumed): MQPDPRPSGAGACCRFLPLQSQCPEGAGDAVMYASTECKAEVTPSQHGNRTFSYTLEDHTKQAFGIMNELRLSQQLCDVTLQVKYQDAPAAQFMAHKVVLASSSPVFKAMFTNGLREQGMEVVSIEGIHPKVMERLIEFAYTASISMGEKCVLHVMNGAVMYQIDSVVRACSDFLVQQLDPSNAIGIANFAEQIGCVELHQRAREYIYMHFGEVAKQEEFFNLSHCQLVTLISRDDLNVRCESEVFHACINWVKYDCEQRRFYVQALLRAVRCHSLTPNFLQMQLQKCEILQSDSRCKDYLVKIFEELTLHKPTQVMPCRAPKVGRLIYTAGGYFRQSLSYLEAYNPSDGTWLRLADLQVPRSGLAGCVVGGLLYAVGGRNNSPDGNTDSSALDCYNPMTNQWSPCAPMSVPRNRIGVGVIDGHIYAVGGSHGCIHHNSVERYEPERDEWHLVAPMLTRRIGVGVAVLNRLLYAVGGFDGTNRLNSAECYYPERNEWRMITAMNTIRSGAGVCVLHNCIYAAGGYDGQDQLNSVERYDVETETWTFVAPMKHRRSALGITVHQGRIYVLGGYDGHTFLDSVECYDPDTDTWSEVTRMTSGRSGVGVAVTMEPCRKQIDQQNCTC

In the case of `COC1=CC(=O)C(O)=C/C1=C/C=C/c1ccccc1` [OBT, (Z)-2-hydroxy-5-methoxy-4-((E)-3-phenylallylidene)cyclohexa-2,5-dien-1-one], the “reversibility of modification at Cys151 and Cys434” value (Keap1; Cys151 BTB domain, Cys434 Kelch domain) is reported as “partially reversible”, the “covalent binding to cysteine sites of Keap1” value (Keap1; differential alkylation) is reported as “bind covalently to all identified cysteine sites” and the “cell death with neddylation inhibitor MLN4924” value (MDA-MB231 cells) is reported as “protection against cell death”. The “OBT-induced ARE activation and loss of cell viability with thiol antioxidants” value (ARE (Nrf2 pathway); addition of NAC, DTT, GSH, U87) was “completely reversed”, the “OBT-induced ARE activation and loss of cell viability with Trolox” value (ARE (Nrf2 pathway); addition of Trolox, U87) was “only partially” and the “ARE luciferase reporter activity” value (ARE (Nrf2 pathway); sub-toxic doses, higher than positive control tBHQ, U87 and MDA-MB-231) was “strongly activated”. The “cell death after silencing of Keap1” value (U87 glioma cells) was “decreased cell death”, the “response of CD4+ T cells to antigenic stimulus” value [1] was “no change” and the “response of CD8+ T cells to antigenic stimulus (proliferation, Ki67, granzyme B)” value [1] was “significantly more responsive”.
